In US20150010545A1 (KADMON CORPORATION, LLC, priority 2011, published 2015):
Each block holds one compound with its values, some of them ahead of it.

How the values were obtained:
BT474 tumor xenografts = assay: BT474 tumor xenograft growth in athymic nude mice; type: in vivo, human; conditions: oral, three consecutive days
Method: The human breast cancer cell line BT474 expresses high levels of ErbB2 (Her2), a significant fraction of which is constitutively phosphorylated even in the absence of an exogenous ligand. The phosphorylation of ErbB2 is a measure of its activity. Athymic nude mice bearing tumor xenografts derived from the human breast cancer cell line BT474 were treated orally on three consecutive days with 3, 10, 30 or 100 mg/kg of EXEL-7647. The tumors were harvested 1 hr after the final dose was administered and their weights were measured.

JIMT-1 cells = assay: JIMT-1 cell proliferation assay (CellTiter 96 AQueous); type: cell-based; conditions: Homo sapiens, 72 hours
[1] = system: FAK (focal adhesion kinase); assay: FAK (PY861) phosphorylation in DLD1-PTK2 cells, Western blot; type: cell-based; conditions: one hour, serum-free DMEM, read-out: IC50 of inhibition of FAK phosphorylation at tyrosine 861
Method: (§1) Inhibition of SRC kinase activity by EXEL-7647 was measured using in vitro kinase assays. […] In addition, the effect of EXEL-7647 on the phosphorylation of the […] protein FAK (focal adhesion kinase) was measured in cell culture (FIG. 1). Specifically, DLD1-PTK2 cells were treated with EXEL-7647 at concentrations of 1.6, 4.7, 14, 41, 123, 370, 1111, 3333 or 10,000 nM for one hour in serum-free DMEM and harvested. The phosphorylation status of the tyrosine at amino acid position 861 of the FAK protein (“FAK-PY861”) in the treated cells was then determined by standard Western blotting using phosphorylation-specific antibodies, as indicated in FIG. 1. The Western blot was quantified using a Typhoon scanned image and ImageQuant software and the IC50 value for EXEL-7647-mediated inhibition of FAK-phosphorylation calculated. […] The kinase inhibitor staurosporine (EXEL 00878128) was used as a positive control. […] The identifier EXEL-02377647:9 in FIG. 1 refers to compound EXEL-7647.

ErbB2 (Her2) = ErbB2 (Her2) (Homo sapiens, UniProt P04626); assay: ErbB2 phosphorylation in BT474 tumor xenografts in mice; type: in vivo
ErbB2 (Her2), sequence (P04626 23-1255): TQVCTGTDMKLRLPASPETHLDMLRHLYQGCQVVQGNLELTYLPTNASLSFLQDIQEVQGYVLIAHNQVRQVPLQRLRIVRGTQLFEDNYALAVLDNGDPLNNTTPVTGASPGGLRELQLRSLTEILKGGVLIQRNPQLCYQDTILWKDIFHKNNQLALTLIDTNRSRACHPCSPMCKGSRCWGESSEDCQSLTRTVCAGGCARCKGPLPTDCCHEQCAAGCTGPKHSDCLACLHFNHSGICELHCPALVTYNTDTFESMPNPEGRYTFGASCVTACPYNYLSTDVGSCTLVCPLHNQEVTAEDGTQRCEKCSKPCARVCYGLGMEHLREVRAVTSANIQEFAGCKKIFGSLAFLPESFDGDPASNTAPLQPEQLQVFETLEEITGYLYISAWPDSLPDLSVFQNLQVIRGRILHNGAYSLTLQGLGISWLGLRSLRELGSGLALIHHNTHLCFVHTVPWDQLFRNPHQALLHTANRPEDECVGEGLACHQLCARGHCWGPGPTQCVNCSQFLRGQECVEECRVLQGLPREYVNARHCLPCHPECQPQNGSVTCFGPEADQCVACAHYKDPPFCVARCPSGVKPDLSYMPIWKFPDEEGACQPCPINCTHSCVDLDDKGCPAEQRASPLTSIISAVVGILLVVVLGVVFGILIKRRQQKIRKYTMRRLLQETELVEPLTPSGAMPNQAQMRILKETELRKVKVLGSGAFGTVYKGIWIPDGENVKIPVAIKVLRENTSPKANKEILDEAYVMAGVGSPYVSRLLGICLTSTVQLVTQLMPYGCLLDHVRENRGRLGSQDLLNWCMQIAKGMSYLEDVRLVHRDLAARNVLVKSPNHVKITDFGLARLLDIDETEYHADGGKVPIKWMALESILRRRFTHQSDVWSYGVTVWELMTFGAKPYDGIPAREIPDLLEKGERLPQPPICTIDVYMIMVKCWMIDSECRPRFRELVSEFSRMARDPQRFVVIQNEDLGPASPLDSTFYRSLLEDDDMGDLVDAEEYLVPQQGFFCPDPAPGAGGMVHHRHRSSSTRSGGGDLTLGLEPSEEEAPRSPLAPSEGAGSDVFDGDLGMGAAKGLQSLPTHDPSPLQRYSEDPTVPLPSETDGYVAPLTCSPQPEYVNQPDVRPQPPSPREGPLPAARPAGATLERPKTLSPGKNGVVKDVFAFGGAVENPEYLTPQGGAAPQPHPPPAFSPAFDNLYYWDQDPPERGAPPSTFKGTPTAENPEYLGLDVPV

[2] = system: murine MS1 endothelial cells; assay: scratch assay, VEGF-stimulated endothelial cell migration
HCC1954 cells = assay: HCC1954 cell proliferation assay (CellTiter 96 AQueous); type: cell-based; conditions: Homo sapiens, 72 hours
[3] = cytotoxicity on HMVECs, Alamar blue staining; conditions: human, human microvascular endothelial cells (HMVECs)
KDR = target: T1, KDR (Mus musculus, UniProt P35918); assay: VEGF-induced KDR phosphorylation in mouse lungs; type: in vivo, mice; conditions: mouse lung lysate pools; read-out: IC50 of decrease of VEGF-induced KDR receptor phosphorylation (plasma concentration)
T1 construct: from tissue; host or cells: mouse lung
T1 sequence (P35918 20-1345): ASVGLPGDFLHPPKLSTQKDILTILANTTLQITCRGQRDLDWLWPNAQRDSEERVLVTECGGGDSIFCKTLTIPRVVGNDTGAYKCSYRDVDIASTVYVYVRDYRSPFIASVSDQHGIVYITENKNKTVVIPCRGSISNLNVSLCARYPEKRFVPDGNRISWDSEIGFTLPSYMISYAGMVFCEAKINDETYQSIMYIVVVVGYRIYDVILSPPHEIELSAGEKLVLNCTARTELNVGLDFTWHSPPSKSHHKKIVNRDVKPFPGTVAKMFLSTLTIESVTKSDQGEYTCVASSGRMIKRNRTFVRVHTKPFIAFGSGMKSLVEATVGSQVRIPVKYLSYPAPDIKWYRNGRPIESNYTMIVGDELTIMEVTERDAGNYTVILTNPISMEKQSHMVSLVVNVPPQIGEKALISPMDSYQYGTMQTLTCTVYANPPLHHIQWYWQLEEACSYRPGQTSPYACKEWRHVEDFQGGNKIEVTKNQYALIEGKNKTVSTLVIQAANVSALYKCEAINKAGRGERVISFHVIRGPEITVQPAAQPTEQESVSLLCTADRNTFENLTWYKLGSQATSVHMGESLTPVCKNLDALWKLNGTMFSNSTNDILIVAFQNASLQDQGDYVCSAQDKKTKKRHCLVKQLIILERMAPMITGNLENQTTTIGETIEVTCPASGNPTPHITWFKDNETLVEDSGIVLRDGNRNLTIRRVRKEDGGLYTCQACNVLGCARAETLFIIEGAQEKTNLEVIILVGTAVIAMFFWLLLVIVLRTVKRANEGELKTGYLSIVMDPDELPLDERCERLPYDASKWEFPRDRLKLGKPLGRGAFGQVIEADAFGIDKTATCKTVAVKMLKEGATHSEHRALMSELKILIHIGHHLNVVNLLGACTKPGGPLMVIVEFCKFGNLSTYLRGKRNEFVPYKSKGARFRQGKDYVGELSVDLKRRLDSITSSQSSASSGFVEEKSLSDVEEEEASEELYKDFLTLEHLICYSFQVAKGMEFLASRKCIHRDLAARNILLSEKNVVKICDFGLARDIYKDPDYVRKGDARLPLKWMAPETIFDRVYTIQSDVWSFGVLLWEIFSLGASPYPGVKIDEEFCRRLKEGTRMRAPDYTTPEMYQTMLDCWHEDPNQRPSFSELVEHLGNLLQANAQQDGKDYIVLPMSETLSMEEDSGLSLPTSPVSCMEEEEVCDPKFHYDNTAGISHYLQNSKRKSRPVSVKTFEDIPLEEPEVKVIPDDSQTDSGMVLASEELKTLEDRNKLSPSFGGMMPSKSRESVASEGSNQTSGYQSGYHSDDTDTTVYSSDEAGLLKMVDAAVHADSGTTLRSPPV

HMVECs = conditions: human
EphB4 = target: T2, EphB4 (Homo sapiens, UniProt P54760); assay: EphB4 phosphorylation in HCT116/EphB4 xenografts in mice; type: in vivo
T2 construct: expressed in transfected cells; host or cells: HCT116 (human colon carcinoma), grown as xenografts in mice
T2 sequence (P54760 16-987): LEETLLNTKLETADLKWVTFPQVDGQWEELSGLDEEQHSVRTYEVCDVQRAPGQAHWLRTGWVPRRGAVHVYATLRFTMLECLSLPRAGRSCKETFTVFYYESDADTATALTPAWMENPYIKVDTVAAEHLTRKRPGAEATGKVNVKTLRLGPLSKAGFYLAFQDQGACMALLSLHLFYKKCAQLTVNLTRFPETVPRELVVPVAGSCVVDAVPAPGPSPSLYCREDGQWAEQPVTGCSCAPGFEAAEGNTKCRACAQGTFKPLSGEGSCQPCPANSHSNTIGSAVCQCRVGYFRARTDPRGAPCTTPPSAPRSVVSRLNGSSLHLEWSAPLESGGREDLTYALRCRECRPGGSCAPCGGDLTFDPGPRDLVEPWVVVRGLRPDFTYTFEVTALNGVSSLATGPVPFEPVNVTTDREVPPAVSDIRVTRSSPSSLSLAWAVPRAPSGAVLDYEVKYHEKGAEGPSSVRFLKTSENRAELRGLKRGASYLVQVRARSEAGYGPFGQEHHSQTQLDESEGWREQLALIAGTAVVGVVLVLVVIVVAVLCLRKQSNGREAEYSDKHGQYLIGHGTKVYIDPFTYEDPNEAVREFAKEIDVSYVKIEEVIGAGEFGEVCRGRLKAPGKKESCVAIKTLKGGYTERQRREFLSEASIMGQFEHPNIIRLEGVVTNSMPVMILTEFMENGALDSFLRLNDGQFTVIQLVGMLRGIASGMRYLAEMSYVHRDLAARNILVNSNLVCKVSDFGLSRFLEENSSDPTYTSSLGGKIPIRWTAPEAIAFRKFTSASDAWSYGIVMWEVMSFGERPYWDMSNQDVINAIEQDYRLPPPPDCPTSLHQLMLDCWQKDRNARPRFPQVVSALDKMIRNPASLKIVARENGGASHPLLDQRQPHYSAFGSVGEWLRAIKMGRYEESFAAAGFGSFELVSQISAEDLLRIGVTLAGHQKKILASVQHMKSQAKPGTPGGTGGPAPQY
Text: The ability of EXEL-7647 to inhibit the activity of the EphB4 receptor (determined by measuring the receptor's level of phosphorylation) was validated as follows. A cell line expressing high levels of EphB4 was derived by transfecting the human colon carcinoma line HCT116 with a drug selectable marker and an expression vector encoding EphB4. The resulting EphB4 expressing cells (HCT116/EphB4) grow as xenografts in immunocompromised mice. […] Attempts to further stimulate EphB4-phosphorylation by intravenous or intratumoral injection of […] were not successful (data not shown).
Mice bearing HCT116/EphB4 xenografts were dosed orally on three consecutive days with 3, 10, 30 or 100 mg/kg EXEL-7647. Tumors were harvested 1 hr after the final dose and assayed individually or in treatment groups for total and phospho-EphB4 levels by standard Western blotting (FIG. 5, left panel). Tumors from mice treated with vehicle alone served as the negative control. The detection of actin served as a control for protein integrity and concentration.
The plasma concentrations of EXEL-7647 in the mice carrying the analyzed tumors (see above) were determined as well and correlated with the corresponding reductions of phospho-EPHB4 levels (FIG. 5, right panel).

[4] = system: MDA-MB-231 tumor xenografts; assay: MDA-MB-231 xenograft growth, up to 28-day dosing; type: in vivo, human
Method: The ability of EXEL-7647 to inhibit the growth of tumors derived from the human breast cancer cell line MDA-MB-231 was validated as follows. Tumor xenografts derived from MDA-MB-231 cells were established in athymic female mice and allowed to reach a total weight of 100 mg. The mice were then treated orally on up to twenty-eight consecutive days with doses of 10, 30 or 100 mg/kg of EXEL-7647. The tumors were harvested on specific days after treatment with XL647 had begun and their weights were measured, as indicated in FIG. 7. Tumors derived from mice treated with vehicle alone served as negative controls.

EGFR = EGFR (Homo sapiens, UniProt P00533); assay: EGF-induced EGFR phosphorylation in A431 tumor xenografts in mice; type: in vivo
EGFR, sequence (P00533 25-1210): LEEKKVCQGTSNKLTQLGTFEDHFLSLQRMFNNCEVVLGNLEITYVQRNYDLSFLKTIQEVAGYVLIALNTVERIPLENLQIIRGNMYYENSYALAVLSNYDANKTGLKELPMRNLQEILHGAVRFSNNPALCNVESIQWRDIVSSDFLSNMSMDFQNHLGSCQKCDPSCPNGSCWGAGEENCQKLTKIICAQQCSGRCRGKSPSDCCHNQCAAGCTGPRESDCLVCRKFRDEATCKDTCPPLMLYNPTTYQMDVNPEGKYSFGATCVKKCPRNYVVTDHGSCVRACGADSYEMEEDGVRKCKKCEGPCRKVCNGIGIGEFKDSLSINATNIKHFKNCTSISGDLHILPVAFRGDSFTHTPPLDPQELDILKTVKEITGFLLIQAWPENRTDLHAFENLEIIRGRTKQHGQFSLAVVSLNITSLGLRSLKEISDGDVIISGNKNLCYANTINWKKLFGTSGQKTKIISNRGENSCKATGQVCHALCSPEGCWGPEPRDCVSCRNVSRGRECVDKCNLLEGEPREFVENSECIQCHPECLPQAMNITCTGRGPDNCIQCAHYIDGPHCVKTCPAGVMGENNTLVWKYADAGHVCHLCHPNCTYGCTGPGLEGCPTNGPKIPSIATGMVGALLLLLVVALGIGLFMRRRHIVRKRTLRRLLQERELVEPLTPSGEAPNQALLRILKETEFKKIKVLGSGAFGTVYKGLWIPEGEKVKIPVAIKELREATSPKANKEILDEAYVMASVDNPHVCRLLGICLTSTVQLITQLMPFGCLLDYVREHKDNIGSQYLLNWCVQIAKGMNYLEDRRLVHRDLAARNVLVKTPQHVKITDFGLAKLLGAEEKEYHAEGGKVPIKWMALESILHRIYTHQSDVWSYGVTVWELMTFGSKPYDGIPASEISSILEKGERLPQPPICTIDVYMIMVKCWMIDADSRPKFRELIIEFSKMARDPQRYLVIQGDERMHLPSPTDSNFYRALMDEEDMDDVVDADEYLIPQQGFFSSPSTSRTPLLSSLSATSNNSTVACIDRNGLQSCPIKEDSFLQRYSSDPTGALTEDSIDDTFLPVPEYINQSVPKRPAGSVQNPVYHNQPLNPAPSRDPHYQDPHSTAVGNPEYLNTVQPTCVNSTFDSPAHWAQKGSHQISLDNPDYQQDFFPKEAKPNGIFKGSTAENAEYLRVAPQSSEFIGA

[5] = system: MDA-MB-231 tumor xenografts; assay: MDA-MB-231 xenografts, 14-day dosing: tumor growth, necrosis, CD31, Ki67; type: in vivo, human; conditions: fourteen days; for CD31 Analysis MVC (mean vessel count) / Ki67 Expression % of Cells / Necrosis % increase: mean (SD)
Method: Anti-angiogenic effects of EXEL-7647 were also studied in vivo. Tumor xenografts derived from the human breast cancer cell line MDA-MB-231 were established in athymic female mice and allowed to reach a total weight of 100 mg. The mice were then treated orally on fourteen consecutive days with doses of 10, 30 or 100 mg/kg of EXEL-7647. The tumors were harvested and their weights were measured after the last dosage had been administered. Tumors derived from mice treated with vehicle alone served as negative controls. […] A statistically significant increase in tumor necrosis was not observed at the lower dose of 10 mg/kg in this model.

Src [6] = target: T3, Src (Homo sapiens, UniProt P12931); assay: in vitro SRC kinase assay; type: biochemical; conditions: in vitro kinase assays; read-out: IC50 of inhibition of SRC kinase activity
T3 sequence (P12931 whole entry): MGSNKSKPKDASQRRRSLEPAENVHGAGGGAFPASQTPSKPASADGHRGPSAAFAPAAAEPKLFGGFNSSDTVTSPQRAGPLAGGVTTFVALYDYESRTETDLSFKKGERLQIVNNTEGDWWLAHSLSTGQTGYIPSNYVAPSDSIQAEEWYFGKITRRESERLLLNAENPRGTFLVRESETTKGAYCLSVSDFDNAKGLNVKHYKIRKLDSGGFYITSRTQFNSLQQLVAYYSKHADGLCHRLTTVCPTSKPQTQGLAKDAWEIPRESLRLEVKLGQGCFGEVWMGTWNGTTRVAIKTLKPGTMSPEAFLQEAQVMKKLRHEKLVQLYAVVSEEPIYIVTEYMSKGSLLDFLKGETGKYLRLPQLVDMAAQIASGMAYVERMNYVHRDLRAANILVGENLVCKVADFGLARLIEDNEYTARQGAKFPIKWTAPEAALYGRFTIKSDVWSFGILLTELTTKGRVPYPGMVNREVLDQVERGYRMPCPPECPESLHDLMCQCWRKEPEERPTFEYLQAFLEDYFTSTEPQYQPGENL
Method: as §1

[7] = system: human microvascular endothelial cells (HMVECs); assay: VEGF-induced endothelial tubule formation assay; type: cell-based; conditions: HMVEC; HMVECs on human diploid fibroblasts, CD31 staining; read-out: IC50 of inhibition of VEGF-induced tubule formation
Text: When plated on a confluent layer of normal human diploid fibroblasts, human microvascular endothelial cells (HMVECs) form extensive networks of tubules in response to VEGF over a 7-10 day period.

Src [8] = target: T3, Src; conditions: both cell lines (JIMT-1, HCC1954), 18 hours of treatment

IC50 [1]: ~1 µM
reduction of phospho-ErbB2 (ErbB2 (Her2); 100 mg/kg oral on three consecutive days, vs vehicle): approximately 70%
IC50 (ErbB2 (Her2); BT474 xenografts, correlated with plasma concentration, read-out: IC50 of inhibition of phospho-ErbB2 accumulation in tumors (plasma concentration)): 3.58 µM
reduction of phospho-ErbB2 (ErbB2 (Her2); plasma concentration of about 5.37 μM): approximately 69%
IC50 ([2]; read-out: IC50 of inhibition of cellular migration into the scratch, VEGF-stimulated MS1 cells, 24 hrs, six-point dose response): ~0.12 µM
IC50 (KDR): ~1.23 µM
reduction of phospho-EphB4 (EphB4; 100 mg/kg oral on three consecutive days): approximately 70%
IC50 (EphB4; HCT116/EphB4 xenografts, read-out: plasma concentration predicted for 50% inhibition of EphB4-phosphorylation): ~2.4 µM
reduction of EphB4 phosphorylation in tumors (EphB4; plasma concentration of about 3 μM): approximately 70%
reduction of EGF-induced EGFR-phosphorylation (EGFR; 100 mg/kg oral, vs positive control): about 90%
IC50 (EGFR; read-out: IC50 plasma concentration for inhibition of EGFR phosphorylation in tumors): 0.72 µM
IC50 (Src [6]): 0.0103 µM
Compound: COc1cc2c(Nc3ccc(Cl)c(Cl)c3F)ncnc2cc1OCC1C[C@@H]2CN(C)C[C@@H]2C1 (stereo partly drawn) [EXEL-7647, N-(3,4-dichloro-2-fluorophenyl)-7-({[(3aR,6aS)-2-methyloctahydrocyclopenta[c]pyrrol-5-yl]methyl}oxy)-6-(methyloxy)quinazolin-4-amine]
calculated ED50 of inhibition of tumor growth (BT474 tumor xenografts): 30 mg EXEL-7647 per kg of body weight
inhibition at 0.2 µM (JIMT-1 cells; EXEL-7647 0.2 μM alone): 15.7%
inhibition at 0.5 µM (JIMT-1 cells; EXEL-7647 0.5 μM alone): 20.3%
inhibition at 1 µM (JIMT-1 cells; EXEL-7647 1.0 μM alone): 22.7%
inhibition at 2 µM (JIMT-1 cells; EXEL-7647 2.0 μM alone): 28.8%
inhibition at 5 µM (JIMT-1 cells; EXEL-7647 5.0 μM alone): 81.7%
cytotoxicity in scratch assay ([2]; concentrations below 1.1 μM): No evidence for cytotoxicity
inhibition at 0.2 µM (HCC1954 cells; EXEL-7647 0.2 μM alone): 22.5%
inhibition at 0.5 µM (HCC1954 cells; EXEL-7647 0.5 μM alone): 32.6%
inhibition at 1 µM (HCC1954 cells; EXEL-7647 1.0 μM alone): 38.1%
inhibition at 2 µM (HCC1954 cells; EXEL-7647 2.0 μM alone): 43.6%
inhibition at 5 µM (HCC1954 cells; EXEL-7647 5.0 μM alone): 80.4%
IC50 [3]: ~1.3 µM
cytotoxicity IC50 relative to IC50 of tubule formation inhibition (HMVECs): approximately 5 fold
final tumor weight ([4]; 100 mg/kg oral, up to twenty-eight days, starting tumor weight 94±9 mg): 117 ± 33 mg
calculated ED50 of inhibition of tumor growth ([4]; MDA-MB-231 xenografts, oral, up to twenty-eight consecutive days): 22.9 mg of XL647 per kg body weight
CD31 Analysis % Reduction ([5]; 10 mg/kg oral): 30.23%
Ki67 Expression % Reduction ([5]; 10 mg/kg oral): 39.6%
Necrosis fold increase ([5]; 10 mg/kg oral): 1.6 fold
CD31 Analysis MVC (mean vessel count) ([5]; 10 mg/kg oral): 12.93 (2.3)
Ki67 Expression % of Cells ([5]; 10 mg/kg oral): 29.8 (13.3) %
Necrosis % increase ([5]; 10 mg/kg oral): 25.0 (14.2) %
CD31 Analysis % Reduction ([5]; 30 mg/kg oral): 55.83%
Ki67 Expression % Reduction ([5]; 30 mg/kg oral): 42.6%
Necrosis fold increase ([5]; 30 mg/kg oral): 2.0 fold
CD31 Analysis MVC (mean vessel count) ([5]; 30 mg/kg oral): 8.18 (1.4)
Ki67 Expression % of Cells ([5]; 30 mg/kg oral): 28.3 (10.4) %
Necrosis % increase ([5]; 30 mg/kg oral): 30.6 (11.3) %
CD31 Analysis % Reduction ([5]; 100 mg/kg oral): 91.23%
Ki67 Expression % Reduction ([5]; 100 mg/kg oral): 49.6%
Necrosis fold increase ([5]; 100 mg/kg oral): 4.5 fold
CD31 Analysis MVC (mean vessel count) ([5]; 100 mg/kg oral): 1.625 (1)
Ki67 Expression % of Cells ([5]; 100 mg/kg oral): 24.87 (4.9) %
Necrosis % increase ([5]; 100 mg/kg oral): 71.1 (8.1) %
tumor weight at end of study ([5]; 100 mg/kg oral, tumor weight at start 100.6±8.7 mg): 112 ± 16.2 mg
IC50 [7]: ~0.22 µM

able to inhibit SRC activity (SRC phosphorylation) (Src [8]): not
Compound: CS(=O)(=O)CCNCc1ccc(-c2ccc3ncnc(Nc4ccc(OCc5cccc(F)c5)c(Cl)c4)c3c2)o1 [lapatinib]
